Experimental data from PubChem BioAssay (NCI).
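Interpolation was linear, between the two tested concentrations surrounding the appropriate level; five concentrations were tested over 48 hours in 96-well plates. Here, GI50 denotes the concentration required for 50% inhibition of growth. TGI is the concentration that stops growth completely.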

Experiments:
Assay in all cases: NCI anticancer screen, dose series, 48 h
[1] = test system: CCRF-CEM leukemia
[2] = test system: HOP-62 NSCLC
[3] = test system: OVCAR-3 ovarian
[4] = test system: SF-295 CNS
[5] = test system: SN12C renal
[6] = test system: TK-10 renal
[7] = test system: SNB-19 CNS
[8] = test system: BT-549 breast
[9] = test system: HS 578T breast
[10] = test system: PC-3 prostate

Row | SMILES | TGI [1] [µM] | TGI [2] [µM] | TGI [3] [µM] | TGI [4] [µM] | TGI [5] [µM] | TGI [6] [µM] | TGI [7] [µM] | GI50 [8] [µM] | TGI [8] [µM] | GI50 [9] [µM] | TGI [9] [µM] | GI50 [3] [µM] | GI50 [10] [µM] | TGI [10] [µM] | GI50 [4] [µM] | GI50 [5] [µM] | GI50 [7] [µM] | GI50 [6] [µM] | GI50 [1] [µM] | GI50 [2] [µM]
1 | Cc1ccc(/C=C/C(=O)c2sc(-c3nc(C)c(C(=O)/C=C/c4ccc(C)cc4)s3)nc2C)cc1 | > 100 | > 100 | > 100 | > 100 | > 100 | > 100 |  |  |  |  |  |  |  |  |  |  |  |  |  | 
2 | Cc1cc(Cl)ccc1NC(=O)C(=O)Cc1nc2ccccc2o1 | > 100 | > 100 | > 100 | > 100 | > 100 | > 100 | > 100 |  |  |  |  |  |  |  |  |  |  |  |  | 
3 | COc1ccc(Nc2nnc(-c3cc(O)ccc3O)s2)cc1 |  |  | > 50 | > 50 | 19.2 | > 50 | > 50 | 14.9 | 43.6 | 19.7 | > 50 | > 50 | 34.4 | > 50 | > 50 | 7.73 | > 50 | 48.4 |  | 
4 | O=C(Nc1nc(=S)c2c(ncn2CCOC(=O)c2ccccc2)[nH]1)c1ccccc1 | > 100 | 79.6 | > 100 | > 100 | > 100 | > 100 | > 100 |  |  |  |  |  |  |  |  |  |  |  |  | 
5 | COc1ccc2[nH]cc(C3(c4c[nH]c5ccc(OC)cc45)C(=O)Nc4ccc(F)cc43)c2c1 | 22.4 | 13 | 4.42 | 4.85 | 12.1 |  | 14.6 | 3.21 | 11.7 | 3.13 | 14.8 | 2.15 | 3.13 | 16.5 | 1.79 | 2.97 | 3.28 |  | 3.04 | 3.09
6 | CN(C)CC1CCCC/C1=N/OC(=O)c1ccc(Cl)cc1 (stereo not given) | > 100 | > 100 | > 100 | > 100 | > 100 | > 100 |  |  |  |  |  |  |  |  |  |  |  |  |  | 
7 | Nc1c(C(=O)Nc2ccncc2)sc2nc3c(cc12)CCCCCCCC3 | 3.26 |  | 1.68 | 1.69 | 1.74 | 1.98 | 1.76 | 0.838 | 1.6 | 1.08 | 2.54 | 0.946 | 0.866 | 1.72 | 0.907 | 0.905 | 0.96 | 1.17 | 1.3 | 
8 | O=C1/C(=C/c2cccc(Cl)c2Cl)N=C(c2ccccc2)N1C1CC1 |  | 16.5 | > 50 | 31.3 | 17.5 | 27.7 | 33.2 | 9.84 | 24.1 | 16.6 | 39.5 | 22.1 | 8.85 | 17.2 | 12.7 | 8.62 | 12.7 | 10.7 |  | 8.37
9 | Cc1cc(N(CCC#N)CCC#N)ccc1N=Nc1ccc(C(=O)O)cc1 |  | > 100 | > 100 | > 100 | > 100 | > 100 |  |  |  |  |  |  |  |  |  |  |  |  |  | 
10 | COc1ccc2c(c1)C(=O)c1c-2c(N2CCN(C(=O)CNCCNCCO)CC2)nc2ccccc12 | 5.22 |  | 31.2 | 32.3 | 13.3 | 32.9 | 28.4 | 3.67 | 12.6 | 5.92 | 25.7 | 11.7 | 5.57 | 18.7 | 12.4 | 3.91 | 11.1 | 13.7 | 1.98 | 
11 | COc1cc(F)ccc1-c1ncnc(Nc2cccc(CS(C)(=N)=O)c2)n1 (stereo not given) | > 100 | 8.38 | > 100 |  | > 100 |  | > 100 | 1.07 | > 100 | 1.21 | 23.9 | 0.45 | 1.28 | 7.7 |  | 0.645 | 1.08 |  | 0.447 | 0.564
12 | CCOC(=O)C(=[N+]=[N-])[Si](C)(C)C |  | 49.7 | > 100 | > 100 | > 100 | > 100 | > 100 |  |  |  |  |  |  |  |  |  |  |  |  | 
13 | NC(=O)C12CC3CC(CC(F)(C3)C1)C2 | > 100 | > 100 | > 100 |  |  | > 100 |  |  |  |  |  |  |  |  |  |  |  |  |  | 
14 | Cc1c2c(C#N)nccc2c(C)c2c1c1ccccc1n2Cc1ccccc1 | > 100 | > 100 | > 100 | > 100 | > 100 | > 100 | > 100 |  |  |  | > 100 |  |  | > 100 |  |  |  |  |  | 
15 | CCN1CCC(O)(c2ccc(OC)cc2)C(C(=O)c2ccc(OC)cc2)C1 (stereo not given) |  | > 100 | 31.6 | > 100 | 42.5 | 10.4 | 69.1 |  |  |  |  |  |  |  |  |  |  |  |  | 
16 | C#C[C@]1(O)CCC2C3CCc4cc(O)ccc4C3CC[C@@]21C (stereo not given in full) |  | 16.6 | 8.43 | 12.2 | 37.6 | > 100 | > 100 | 4.64 | 18.4 | 3.08 | 17.7 | 3.14 | 5.48 | 42.4 | 2.7 | 6.41 | 7.59 | 10.3 |  | 4.34
17 | Cc1ccc(NC(=O)CCc2cc(C(C)(C)C)nc(=S)[nH]2)cc1C | > 100 | > 100 | > 100 | > 100 | > 100 | > 100 | > 100 |  |  |  |  |  |  |  |  |  |  |  |  | 
18 | OCC1OC(c2nc(C3=NCCCN3)cs2)C(O)C1O (stereo not given) | > 100 | > 100 | > 10 | > 10 | > 100 | > 100 | > 100 |  |  |  |  |  |  |  |  |  |  |  |  | 
19 | [N-]=[N+]=N[C@H]1C[C@@H](CO)O[C@H]1n1cnc2c(N)ncnc21 |  | > 100 | > 100 | > 100 | > 100 | > 100 | > 100 |  |  |  |  |  |  |  |  |  |  |  |  | 
20 | CCCc1nc(NC#N)nc(C(=O)Nc2ccccc2)c1CC |  | > 100 | > 100 | > 100 | > 100 | > 100 | > 100 |  |  |  |  |  |  |  |  |  |  |  |  | 
21 | CC1c2c(Cl)nc3ccccc3c2Oc2c1c(Cl)nc1ccccc21 | > 100 | > 100 | > 100 | > 100 |  | > 100 | > 100 |  |  |  |  |  |  |  |  |  |  |  |  | 
